Columns and labels:
Assay type in all cases: cell-based
[1] = system: OUMS-23 colorectal cancer cell line; assay: Cell proliferation, cell count by microscopy; settings: single agent; OUMS-23 (BRAF); 72 h treatment
Method: (§1) COMPOUNDS A and B were dissolved in 100% DMSO (Sigma, Catalog number D2650) at concentrations of 20 mM and stored at −20° C. until use. Compounds were arrayed in drug master plates (Greiner, Catalog number 788876) and serially diluted 3-fold (7 steps) at 2000× concentration.
(§2) Colorectal cancer cell lines used for this study were obtained, cultured and processed from commercial vendors ATCC, CellBank Australia, DSMZ, ECACC, HSRRB, and RIKEN (Table 1). All cell line media were supplemented with 10% FBS (HyClone, Catalog number SH30071.03). Media for LIM2405 and LIM2551 was additionally supplemented with 0.6 μg/mL Insulin (SIGMA, Catalog number 19278), 1 μg/mL Hydrocortisone (SIGMA, Catalog number H0135), and 10 μM 1-Thioglycerol (SIGMA, Catalog number M6145).
(§3) Cell lines were cultured in 37° C. and 5% CO2 incubator and expanded in T-75 flasks. In all cases cells were thawed from frozen stocks, expanded through ≥1 passage using 1:3 dilutions, counted and assessed for viability using a ViCell counter (Beckman-Coulter) prior to plating. To split and expand cell lines, cells were dislodged from flasks using 0.25% Trypsin-EDTA (GIBCO, Catalog number 25200). All cell lines were determined to be free of mycoplasma contamination as determined by a PCR detection methodology performed at Idexx Radil (Columbia, Mo., USA) and correctly identified by detection of a panel of SNPs.
(§4) To test the effect of the combination of COMPOUND A and COMPOUND B on cell proliferation cells were plated in black 384-well microplates with clear bottom (Matrix/Thermo Scientific, Catalog number 4332) in 50 μL media per well at cell densities between 500 and 1250 cells/well (Table 1) and allowed to incubate at 37 degrees, 5% CO2 for 24 h. After 24 h one 384-well plate per cell line was prepared for cell counting by microscopy (see below) without receiving treatment (=‘baseline’). The other cell plates were treated by transferring 25 nL of the 2000× compound from drug master plates using an ATS acoustic liquid dispenser (ECD Biosystems) and resulting in a final 1× concentration. COMPOUND A was used over a final concentration range of 13 nM-10 μM, and COMPOUND B was used over a final concentration range of 13 nM-10 μM (7 1:3 dilution steps). For the combination of COMPOUND A with COMPOUND B the single agents were combined at a fixed ratio of 1:1 at each dilution resulting in 7 combination treatments. […] After compound addition 50 nL of 2 mM CellEvent Caspase-3/7 Green Detection Reagent (ThermoFisher, Catalog number C10423) were added to one of the three replicates using the HP D300 Digital Dispenser (Tecan). Caspase 3/7 induction was measured as a proxy for apoptosis induced by the treatments. Cells were treated for 72 h to 96 h depending on their doubling time (Table 1), and Caspase 3/7 activation was measured every 24 h by microscopy using an InCell Analyzer 2000 (GE Healthcare) equipped with a 4× objective and FITC excitation/emission filters. At the end of the treatment cells were prepared for cell counting by microscopy. Cells were fixed and permeabilised for 45 minutes in 4% PFA (Electron Microscopy Sciences, Catalog number 15714), 0.12% TX-100 (Electron Microscopy Sciences, Catalog number 22140) in PBS (Boston Bioproducts, Catalog number BM-220). After washing cells three times with PBS their DNA was stained for 30 minutes with Hoechst 33342 (ThermoFisher, Catalog number H3570) at a final concentration of 4 μg/ml. Cells were washed three times with PBS and then plates were heat-sealed using a PlateLoc (Agilent Technologies) with aluminum seals (Agilent Technologies, Catalog number 06644-001) and stored at 4° C. until imaging. All cells per well/treatment were captured in a single image by fluorescence microscopy using an InCell Analyzer 2000 (GE Healthcare) equipped with a 4× objective and DAPI excitation/emission filters. […]

[2] = system: LS-180 colorectal cancer cell line; assay: Cell proliferation, cell count by microscopy; settings: Homo sapiens, LS180; single agent; LS-180 (KRAS, PIK3CA); 72 h treatment
Method: as §1, §2, §3, §4

[3] = system: NCI-H508 colorectal cancer cell line; assay: Cell proliferation, cell count by microscopy; settings: Homo sapiens; single agent; NCI-H508 (PIK3CA); 72 h treatment
Method: as §1, §2, §3, §4

[4] = system: HT55 colorectal cancer cell line; assay: Cell proliferation, cell count by microscopy; settings: Homo sapiens; single agent; HT55 (no driver mutation listed); 96 h treatment
Method: as §1, §2, §3, §4

[5] = system: LIM2551 colorectal cancer cell line; assay: Cell proliferation, cell count by microscopy; settings: single agent; LIM2551 (BRAF, PIK3CA); 72 h treatment
Method: as §1, §2, §3, §4

[6] = system: HT-29 colorectal cancer cell line; assay: Cell proliferation, cell count by microscopy; settings: Homo sapiens; single agent; HT-29 (BRAF, PIK3CA); 72 h treatment
Method: as §1, §2, §3, §4

[7] = system: DLD-1 colorectal cancer cell line; assay: Cell proliferation, cell count by microscopy; settings: Homo sapiens; single agent; DLD-1 (KRAS, PIK3CA); 72 h treatment
Method: as §1, §2, §3, §4

[8] = system: LIM2405 colorectal cancer cell line; assay: Cell proliferation, cell count by microscopy; settings: single agent; LIM2405 (BRAF); 72 h treatment
Method: as §1, §2, §3, §4

[9] = system: SW48 colorectal cancer cell line; assay: Cell proliferation, cell count by microscopy; settings: Homo sapiens; single agent; SW48 (MEK1); 96 h treatment
Method: as §1, §2, §3, §4

[10] = system: LoVo colorectal cancer cell line; assay: Cell proliferation, cell count by microscopy; settings: Homo sapiens; single agent; LoVo (KRAS); 96 h treatment
Method: as §1, §2, §3, §4

[11] = system: COLO-320 colorectal cancer cell line; assay: Cell proliferation, cell count by microscopy; settings: Homo sapiens; single agent; COLO-320 (no driver mutation listed); 72 h treatment
Method: as §1, §2, §3, §4

[12] = system: LS411N colorectal cancer cell line; assay: Cell proliferation, cell count by microscopy; settings: Homo sapiens, LS-411N; single agent; LS411N (BRAF); 72 h treatment
Method: as §1, §2, §3, §4

[13] = system: COLO-678 colorectal cancer cell line; assay: Cell proliferation, cell count by microscopy; settings: Homo sapiens; single agent; COLO-678 (KRAS); 96 h treatment
Method: as §1, §2, §3, §4

[14] = system: GP2d colorectal cancer cell line; assay: Cell proliferation, cell count by microscopy; settings: single agent; GP2d (KRAS, PIK3CA); 72 h treatment
Method: as §1, §2, §3, §4

[15] = system: HCT-116 colorectal cancer cell line; assay: Cell proliferation, cell count by microscopy; settings: Homo sapiens; single agent; HCT-116 (KRAS, PIK3CA); 72 h treatment
Method: as §1, §2, §3, §4

[16] = system: SW837 colorectal cancer cell line; assay: Cell proliferation, cell count by microscopy; settings: Homo sapiens; single agent; SW837 (KRAS); 72 h treatment
Method: as §1, §2, §3, §4

[17] = system: SNU-C2A colorectal cancer cell line; assay: Cell proliferation, cell count by microscopy; settings: single agent; SNU-C2A (KRAS); 96 h treatment
Method: as §1, §2, §3, §4

[18] = system: CL-11 colorectal cancer cell line; assay: Cell proliferation, cell count by microscopy; settings: single agent; CL-11 (KRAS); 96 h treatment
Method: as §1, §2, §3, §4

[19] = system: SW480 colorectal cancer cell line; assay: Cell proliferation, cell count by microscopy; settings: Homo sapiens; single agent; SW480 (KRAS); 72 h treatment
Method: as §1, §2, §3, §4

[20] = system: RKO colorectal cancer cell line; assay: Cell proliferation, cell count by microscopy; settings: single agent; RKO (BRAF, PIK3CA); 72 h treatment
Method: as §1, §2, §3, §4

[21] = system: COLO-205 colorectal cancer cell line; assay: Cell proliferation, cell count by microscopy; settings: Homo sapiens; single agent; COLO-205 (BRAF); 72 h treatment
Method: as §1, §2, §3, §4

[22] = system: CW-2 colorectal cancer cell line; assay: Cell proliferation, cell count by microscopy; settings: single agent; CW-2 (no driver mutation listed); 96 h treatment
Method: as §1, §2, §3, §4

[23] = system: SW620 colorectal cancer cell line; assay: Cell proliferation, cell count by microscopy; settings: Homo sapiens, SW-620; single agent; SW620 (KRAS); 72 h treatment
Method: as §1, §2, §3, §4

[24] = system: 23 colorectal cancer cell lines; assay: Cell proliferation over the panel of cell lines; settings: single agent; for IC50 values over the cell line panel: summary in words of FIG. 1 and Table 2
Method: as §1, §2, §3
To test the effect of the combination of COMPOUND A and COMPOUND B on cell proliferation cells were plated in black 384-well microplates with clear bottom (Matrix/Thermo Scientific, Catalog number 4332) in 50 μL media per well at cell densities between 500 and 1250 cells/well (Table 1) and allowed to incubate at 37 degrees, 5% CO2 for 24 h. […] Caspase 3/7 induction was measured as a proxy for apoptosis induced by the treatments. Cells were treated for 72 h to 96 h depending on their doubling time (Table 1), and Caspase 3/7 activation was measured every 24 h by microscopy using an InCell Analyzer 2000 (GE Healthcare) equipped with a 4× objective and FITC excitation/emission filters. […]

Row | IC50 [1] | IC50 [2] | IC50 [3] | IC50 [4] | IC50 [5] | IC50 [6] | IC50 [7] | IC50 [8] | IC50 [9] | IC50 [10] | IC50 [11] | IC50 [12] | IC50 [13] | IC50 [14] | IC50 [15] | IC50 [16] | IC50 [17] | IC50 [18] | IC50 [19] | IC50 [20] | SMILES | other results
1 | > 10 µM | > 10 µM | 1.5 µM | 1 µM | 1.4 µM | 3.8 µM | > 10 µM | > 10 µM | > 10 µM | 0.1 µM | 5.1 µM | 3 µM | > 10 µM | 0.6 µM | > 10 µM | > 10 µM | > 10 µM | > 10 µM | > 10 µM | 3.9 µM | NC1(c2ccc(-c3nc4ccn5c(=O)[nH]nc5c4cc3-c3ccccc3)cc2)CCC1 [COMPOUND B, 8-[4-(1-Aminocyclobutyl)phenyl]-9-phenyl-1,2,4-triazolo[3,4-f][1,6]naphthyridin-3(2H)-one, reference compound] | IC50 [21]: 5.4 µM; IC50 [22]: 6.4 µM; IC50 [23]: > 10 µM; IC50 values over the cell line panel [24]: micromolar
2 | > 10 µM | 7.1 µM | 1.3 µM | 1.1 µM | 1.4 µM | 1.9 µM | > 10 µM | > 10 µM | 3.2 µM | 7.5 µM | 7.3 µM | > 10 µM | > 10 µM | 0.3 µM | 6.9 µM | 9.3 µM | > 10 µM | 3.2 µM | > 10 µM | 2.6 µM | Cc1nc(NC(=O)N2CCC[C@H]2C(N)=O)sc1-c1ccnc(C(C)(C)C(F)(F)F)c1 [COMPOUND A, (S)-Pyrrolidine-1,2-dicarboxylic acid 2-amide 1-({4-methyl-5-[2-(2,2,2-trifluoro-1,1-dimethyl-ethyl)-pyridin-4-yl]-thiazol-2-yl}-amide)] | IC50 [21]: > 10 µM; IC50 [22]: > 10 µM; IC50 [23]: > 10 µM; growth inhibition of PIK3CA mutant cell lines compared to PIK3CA wild type cell lines ([24]; one-tailed t-test on normalized cell counts (FIG. 3)): significantly stronger; IC50 values over the cell line panel [24]: micromolar

Source: patent publication US20180256557A1, “PHARMACEUTICAL COMBINATION COMPRISING (A) THE ALPHA-ISOFORM SPECIFIC PI3K INHIBITOR ALPELISIB (BYL719) AND (B) AN AKT INHIBITOR, PREFERABLY MK-2206, AFURESERTIB OR UPROSERTIB, AND THE USE THEREOF IN THE TREATMENT/PREVENTION OF CANCER” (priority 2015, published 2018)
